Experiments:
L1210 [1] = experiment: Cytotoxicity against mouse L1210 cells after 48 hrs by microculture tetrazolium assay; assay type: functional, cell-based; details: L1210, 48 h
[2] = Cytotoxicity against human KB3-1 cells after 96 hrs by microculture tetrazolium assay; assay type: functional, cell-based; details: KB 3-1, 96 h
L1210 [3] = experiment: Cell cycle arrest in mouse L1210 cells assessed as accumulation at S phase at 10 uM after 21 hrs using propidium iodide staining by flow cytometry; assay type: functional
L1210 [4] = experiment: Cell cycle arrest in mouse L1210 cells assessed as accumulation at G1 phase at 10 uM after 21 hrs using propidium iodide staining by flow cytometry; assay type: functional
L1210 [5] = experiment: Cell cycle arrest in mouse L1210 cells assessed as accumulation at G2M phase at 10 uM after 21 hrs using propidium iodide staining by flow cytometry; assay type: functional

SMILES | IC50 (L1210 [1]) [µM] | IC50 [2] [µM] | Activity (L1210 [3]) [%] | Activity (L1210 [4]) [%] | Activity (L1210 [5]) [%]
CC1=C[C@@H](OC(=O)C(C)(C)C)C2=CC(=O)O[C@@H](O[C@@H]3O[C@H](COC(=O)C(C)(C)C)[C@@H](OC(=O)C(C)(C)C)[C@H](OC(=O)C(C)(C)C)[C@H]3OC(=O)C(C)(C)C)[C@H]12 | 24.8 | 7.2 |  |  | 
CC(C)(C)C(=O)OCC1=C[C@@H](OC(=O)C(C)(C)C)C2=CC(=O)O[C@@H](O[C@@H]3O[C@H](COC(=O)C(C)(C)C)[C@@H](OC(=O)C(C)(C)C)[C@H](OC(=O)C(C)(C)C)[C@H]3OC(=O)C(C)(C)C)[C@H]12 | 4 | 0.42 | 19 | 36 | 45
